Results as given in ChEMBL document CHEMBL6177980 (J Med Chem, 2025).
The source made the active and inactive calls. No cut-off for these calls is given here.

Tests used:
[1] = Prodrug conversion in C57BL/6J mouse liver microsomes assessed as parent nucleoside metabolite formation at 1 uM measured up to 60 mins in presence of BNPP/NADPH/UDPGA by LC-MS/MS analysis; assay type: ADME, Microsome; settings: 1 h
[2] = Prodrug conversion in Beagle dog assessed as Cmax of 4'-Fluorouridine metabolite at 10 mg/kg, po by LC-MS/MS analysis; assay type: ADME, organism-based, Canis lupus familiaris; settings: in vivo
[3] = Prodrug conversion in C57BL/6J mouse assessed as AUC (0 to t) of 4'-Fluorouridine metabolite at 2 mg/kg, po by LC-MS/MS analysis; assay type: ADME, organism-based; settings: in vivo
[4] = Prodrug conversion in Sprague-Dawley rat assessed as 4'-Fluorouridine-NTP metabolite formation in lung at 6 mg/kg, po measured for 0.5 to 24 hrs by LC-MS/MS analysis; assay type: ADME, organism-based; settings: in vivo, time 0.5-24 hrs
[5] = test system: Mammarenavirus choriomeningitidis; assay: In vivo antiviral activity against LCMV infected in C57BL/6-Prf1tm1Sdz/J mouse assessed as appearance of regular splenic nodule structure at 1 to 5 mg/kg, po qd for 7 days; assay type: functional, organism-based; settings: dose 1-5 mg/kg, time 7.0 day
[6] = test system: Mammarenavirus choriomeningitidis; assay: Antiviral activity against LCMV infected in C57BL/6-Prf1tm1Sdz/J mouse assessed as reduction in viral copy number in lung treated orally once daily for 7 days by RT-qPCR analysis; assay type: functional, organism-based; settings: dose 1-5 mg/kg, route po, time 7.0 day
[7] = Prodrug conversion in C57BL/6J mouse assessed as AUC (0 to t) of 4'-Fluorouridine metabolite at 20 mg/kg, po by LC-MS/MS analysis; assay type: ADME, organism-based; settings: in vivo
[8] = Stability in Beagle dog plasma administered orally or intravenously; assay type: ADME, cell-free, Canis lupus familiaris; settings: po
[9] = Prodrug conversion in C57BL/6J mouse plasma assessed as parent nucleoside metabolite formation at 1 uM measured up to 60 mins by LC-MS/MS analysis; assay type: ADME, cell-free; settings: 1 h
[10] = Prodrug conversion in Sprague-Dawley rat plasma assessed as parent nucleoside metabolite formation at 1 uM measured up to 60 mins by LC-MS/MS analysis; assay type: ADME, cell-free; settings: 1 h
[11] = Prodrug conversion in Beagle dog plasma assessed as parent nucleoside metabolite formation administered orally or intravenously; assay type: ADME, cell-free, Canis lupus familiaris; settings: po
[12] = AUC (0 to t) in fasted Sprague-Dawley rat at 23 mg/kg, po by LC-MS/MS analysis; assay type: ADME, organism-based; settings: in vivo
[13] = Prodrug conversion in Beagle dog assessed as half life of 4'-Fluorouridine metabolite treated orally or intravenously by LC-MS/MS analysis; assay type: ADME, Canis lupus familiaris; settings: in vivo, po
[14] = Prodrug conversion in Beagle dog liver microsomes assessed as parent nucleoside metabolite formation at 1 uM measured up to 60 mins in presence of NADPH/UDPGA by LC-MS/MS analysis; assay type: ADME, Canis lupus familiaris, Microsome; settings: 1 h
[15] = Prodrug conversion in Beagle dog assessed as AUC (0 to t) of 4'-Fluorouridine metabolite at 10 mg/kg, po by LC-MS/MS analysis; assay type: ADME, organism-based, Canis lupus familiaris; settings: in vivo
[16] = Prodrug conversion in Sprague-Dawley rat assessed as AUC (0 to t) of 4'-Fluorouridine metabolite at 6 mg/kg, po by LC-MS/MS analysis; assay type: ADME, organism-based; settings: in vivo
[17] = Prodrug conversion in C57BL/6J mouse liver microsomes assessed as parent nucleoside metabolite formation at 1 uM measured up to 60 mins in presence of NADPH/UDPGA by LC-MS/MS analysis; assay type: ADME, Microsome; settings: 1 h
[18] = Prodrug conversion in Beagle dog assessed as AUC (0 to t) of 4'-Fluorouridine metabolite at 1 mg/kg, po by LC-MS/MS analysis; assay type: ADME, organism-based, Canis lupus familiaris; settings: in vivo
HepG2 = assay: Mitochondrial toxicity in human HepG2 cells cultured in glucose containing medium at 100 uM; assay type: cell-based; settings: hepg2, 100 µM
[19] = test system: Mammarenavirus choriomeningitidis; assay: In vivo antiviral activity against LCMV infected in C57BL/6-Prf1tm1Sdz/J mouse assessed as void of inflammatory cell inflammation in spleen at 1 to 5 mg/kg, po qd for 7 days; assay type: functional, organism-based; settings: dose 1-5 mg/kg, time 7.0 day
[20] = test system: Mammarenavirus choriomeningitidis; assay: Antiviral activity against LCMV infected in C57BL/6-Prf1tm1Sdz/J mouse assessed as reduction in viral titer in liver treated orally once daily for 7 days by RT-qPCR analysis; assay type: functional, organism-based; settings: dose 1-5 mg/kg, route po, time 7.0 day
[21] = Stability in SGF assessed as compound degradation measured for 24 hrs by HPLC analysis; assay type: physicochemical; settings: simulated gastric fluid (SGF), read-out: Drug degradation
[22] = Prodrug conversion in Sprague-Dawley rat assessed as AUC (0 to t) of 4'-Fluorouridine metabolite at 6 mg/kg/day, po treated for 7 days by LC-MS/MS analysis; assay type: ADME, organism-based; settings: in vivo, 168 h, time 7 day
[23] = Prodrug conversion in Sprague-Dawley rat assessed as 4'-Fluorouridine metabolite formation in lung at 6 mg/kg, po measured for 0.5 to 24 hrs by LC-MS/MS analysis; assay type: ADME, organism-based; settings: in vivo, time 0.5-24 hrs
[24] = Cmax in fasted Cynomolgus monkey at 11.6 mg/kg, po by LC-MS/MS analysis; assay type: ADME, organism-based, Macaca fascicularis; settings: in vivo
[25] = Prodrug conversion in Sprague-Dawley rat assessed as 4'-Fluorouridine-NTP metabolite formation in thymus at 6 mg/kg, po measured for 0.5 to 24 hrs by LC-MS/MS analysis; assay type: ADME, organism-based; settings: in vivo, time 0.5-24 hrs
[26] = test system: Mammarenavirus choriomeningitidis; assay: In vivo antiviral activity against LCMV infected in C57BL/6-Prf1tm1Sdz/J mouse assessed as improvement in body weight loss at 1 to 5 mg/kg, po qd treated for 7 days; assay type: functional, organism-based; settings: dose 1-5 mg/kg, time 7.0 day
[27] = Prodrug conversion in Sprague-Dawley rat assessed as 4'-Fluorouridine metabolite formation in brain at 6 mg/kg, po measured for 0.5 to 24 hrs by LC-MS/MS analysis; assay type: ADME, organism-based; settings: in vivo, time 0.5-24 hrs
[28] = test system: Mammarenavirus choriomeningitidis; assay: In vivo antiviral activity against LCMV infected in C57BL/6-Prf1tm1Sdz/J mouse assessed as appearance of clear boundary between red and white pulp in spleen at 1 to 5 mg/kg, po qd for 7 days; assay type: functional, organism-based; settings: dose 1-5 mg/kg, time 7.0 day
[29] = test system: Mammarenavirus choriomeningitidis; assay: Antiviral activity against LCMV infected in C57BL/6-Prf1tm1Sdz/J mouse assessed as reduction in viral titer in lung treated orally once daily for 7 days by RT-qPCR analysis; assay type: functional, organism-based; settings: dose 1-5 mg/kg, route po, time 7.0 day
[30] = Prodrug conversion in Sprague-Dawley rat assessed as AUC (0 to t) of 4'-Fluorouridine metabolite at 20 mg/kg, po by LC-MS/MS analysis; assay type: ADME, organism-based; settings: in vivo
[31] = test system: Mammarenavirus choriomeningitidis; assay: In vivo antiviral activity against LCMV infected in C57BL/6-Prf1tm1Sdz/J mouse assessed as improvement in lymphocytes percentage at 1 to 5 mg/kg, po qd treated for 7 days; assay type: functional, organism-based; settings: dose 1-5 mg/kg, time 7.0 day
[32] = Cmax in fasted Sprague-Dawley rat at 23 mg/kg, po by LC-MS/MS analysis; assay type: ADME, organism-based; settings: in vivo
[33] = Prodrug conversion in Sprague-Dawley rat assessed as Cmax of 4'-Fluorouridine metabolite at 20 mg/kg, po by LC-MS/MS analysis; assay type: ADME, organism-based; settings: in vivo
[34] = Stability in SIF assessed as compound degradation measured for 24 hrs by HPLC analysis; assay type: physicochemical; settings: simulated intestinal fluid (SIF), read-out: Drug degradation
[35] = Stability of compound at pH 1.5 assessed as change in purity at 1 mg/ml incubated for 12 hrs by HPLC analysis; assay type: physicochemical; settings: buffer, pH 1.5, 12 h

CC(C)C(=O)OC[C@@]1(F)O[C@@H](n2ccc(=O)n(COC(=O)c3cccnc3)c2=O)[C@H](OC(=O)C(C)C)[C@@H]1OC(=O)C(C)C
Drug metabolism [1]: metabolite_notdetected
Cmax [2]: 1501 ng/mL
AUCt [3]: 826 ng·h/mL
Drug metabolism [4]: metabolite_detected
Activity [5]: Active
Activity [6]: Dose-dependent-effect
AUCt [7]: 7586 ng·h/mL
Stability [8]: Unstable
Drug metabolism [9]: metabolite_detected
Drug metabolism [10]: metabolite_detected
Drug metabolism [11]: metabolite_detected
AUC(0-t) [12]: 11800 ng·h/mL
t1/2 [13]: 1 h
Drug metabolism [14]: metabolite_detected
AUCt [15]: 3601 ng·h/mL
AUCt [16]: 3023 ng·h/mL
Drug metabolism [17]: metabolite_detected
AUCt [18]: 257 ng·h/mL
Activity (HepG2): Non-toxic
Activity [19]: Active
Activity [20]: Dose-dependent-effect
degraded at 24 h [21]: < 5%
AUCt [22]: 4084 ng·h/mL
Drug metabolism [23]: metabolite_detected
Cmax [24]: 2390 ng/mL
Drug metabolism [25]: metabolite_detected
Activity [26]: Active
Drug metabolism [27]: metabolite_detected
Activity [28]: Active
Activity [29]: Dose-dependent-effect
AUCt [30]: 11325 ng·h/mL
Activity [31]: Active
Cmax [32]: 1230 ng/mL
Cmax [33]: 1142 ng/mL
degraded at 24 h [34]: < 5%
Activity [35]: -4.2%
